The values that follow are results of earlier work, collected in patent US20210322558A1, “PHENYLEPHRINE RESINATE PARTICLES AND USE THEREOF IN PHARMACEUTICAL FORMULATIONS” (JOHNSON & JOHNSON CONSUMER INC., priority 2013, published 2021).

The conditions of data set [1]: 30 mg dose administered orally over eight hours.

For `CC(=O)Nc1ccc(O)cc1` [acetaminophen], the “fraction of a therapeutic dose excreted unchanged in the urine” value is on record as “Less than 9%”.

As for `CNC[C@H](O)c1cccc(O)c1.Cl` [phenylephrine, (R)-1-(3-hydroxyphenyl)-2-methylaminoethanol], in data set [1], the “metabolized to m-hydroxy-phenylglycol-sulfate, % of the dose” value was 6%; the “metabolized to m-hydroxymandelic acid, % of the dose” value is reported as 30%; the “metabolized to phenylephrine-glucuronide, % of the dose” value is 12%; the “metabolized to phenylephrine-sulfate, % of the dose” value was 47%.
